Experimental data reported in ChEMBL document CHEMBL3994622, “Design and synthesis of new RAF kinase-inhibiting antiproliferative quinoline derivatives. Part 2: Diarylurea derivatives” (Eur J Med Chem, 2017).

Columns and labels:
RPMI-8226 = assay: Growth inhibition of human RPMI8226 cells assessed as cell growth at 10 uM incubated for 48 hrs by sulforhodamine B assay relative to control; type: functional; conditions: RPMI-8226, 48 h, read-out: Activity
A549 = assay: Growth inhibition of human A549/ATCC cells assessed as cell growth at 10 uM incubated for 48 hrs by sulforhodamine B assay relative to control; type: functional; conditions: A549, 48 h, read-out: Activity
EKVX = assay: Growth inhibition of human EKVX cells assessed as cell growth at 10 uM incubated for 48 hrs by sulforhodamine B assay relative to control; type: functional; conditions: read-out: Activity
NCI-H460 = assay: Growth inhibition of human NCI-H460 cells assessed as cell growth at 10 uM incubated for 48 hrs by sulforhodamine B assay relative to control; type: functional; conditions: NCI-H460, 48 h, read-out: Activity
NCI-H522 = assay: Growth inhibition of human NCI-H522 cells assessed as cell growth at 10 uM incubated for 48 hrs by sulforhodamine B assay relative to control; type: functional; conditions: NCI-H522, 48 h, read-out: Activity
COLO 205 = assay: Growth inhibition of human COLO205 cells assessed as cell growth at 10 uM incubated for 48 hrs by sulforhodamine B assay relative to control; type: functional; conditions: COLO 205, 48 h, read-out: Activity
HCC 2998 = assay: Growth inhibition of human HCC2998 cells assessed as cell growth at 10 uM incubated for 48 hrs by sulforhodamine B assay relative to control; type: functional; conditions: HCC 2998, 48 h, read-out: Activity
SW-620 = assay: Growth inhibition of human SW620 cells assessed as cell growth at 10 uM incubated for 48 hrs by sulforhodamine B assay relative to control; type: functional; conditions: SW-620, 48 h, read-out: Activity
SNB-19 = assay: Growth inhibition of human SNB19 cells assessed as cell growth at 10 uM incubated for 48 hrs by sulforhodamine B assay relative to control; type: functional; conditions: SNB-19, 48 h, read-out: Activity
LOX IMVI = assay: Growth inhibition of human LOXIMVI cells assessed as cell growth at 10 uM incubated for 48 hrs by sulforhodamine B assay relative to control; type: functional; conditions: read-out: Activity
SK-MEL-2 = assay: Growth inhibition of human SK-MEL-2 cells assessed as cell growth at 10 uM incubated for 48 hrs by sulforhodamine B assay relative to control; type: functional; conditions: SK-MEL-2, 48 h, read-out: Activity
SK-MEL-5 = assay: Growth inhibition of human SK-MEL-5 cells assessed as cell growth at 10 uM incubated for 48 hrs by sulforhodamine B assay relative to control; type: functional; conditions: SK-MEL-5, 48 h, read-out: Activity
IGROV-1 = assay: Growth inhibition of human IGROV1 cells assessed as cell growth at 10 uM incubated for 48 hrs by sulforhodamine B assay relative to control; type: functional; conditions: IGROV-1, 48 h, read-out: Activity
OVCAR-3 = assay: Growth inhibition of human OVCAR3 cells assessed as cell growth at 10 uM incubated for 48 hrs by sulforhodamine B assay relative to control; type: functional; conditions: OVCAR-3, 48 h, read-out: Activity
OVCAR-5 = assay: Growth inhibition of human OVCAR5 cells assessed as cell growth at 10 uM incubated for 48 hrs by sulforhodamine B assay relative to control; type: functional; conditions: OVCAR-5, 48 h, read-out: Activity
NCI/ADR-RES = assay: Growth inhibition of human NCI/ADR-RES cells assessed as cell growth at 10 uM incubated for 48 hrs by sulforhodamine B assay relative to control; type: functional; conditions: read-out: Activity
SK-OV-3 = assay: Growth inhibition of human SKOV3 cells assessed as cell growth at 10 uM incubated for 48 hrs by sulforhodamine B assay relative to control; type: functional; conditions: SK-OV-3, 48 h, read-out: Activity
A498 = assay: Growth inhibition of human A498 cells assessed as cell growth at 10 uM incubated for 48 hrs by sulforhodamine B assay relative to control; type: functional; conditions: A498, 48 h, read-out: Activity
ACHN = assay: Growth inhibition of human ACHN cells assessed as cell growth at 10 uM incubated for 48 hrs by sulforhodamine B assay relative to control; type: functional; conditions: read-out: Activity
CAKI-1 [1] = assay: Growth inhibition of human Caki1 cells assessed as cell growth at 10 uM incubated for 48 hrs by sulforhodamine B assay relative to control; type: functional; conditions: CAKI-1, 48 h, read-out: Activity
RXF 393 = assay: Growth inhibition of human RXF393 cells assessed as cell growth at 10 uM incubated for 48 hrs by sulforhodamine B assay relative to control; type: functional; conditions: RXF 393, 48 h, read-out: Activity
MCF7 [2] = assay: Growth inhibition of human MCF7 cells assessed as cell growth at 10 uM incubated for 48 hrs by sulforhodamine B assay relative to control; type: functional; conditions: MCF7, 48 h, read-out: Activity
MDA-MB-231 [3] = assay: Growth inhibition of human MDA-MB-231 cells assessed as cell growth at 10 uM incubated for 48 hrs by sulforhodamine B assay relative to control; type: functional; conditions: MDA-MB-231, 48 h, read-out: Activity
BT-549 = assay: Growth inhibition of human BT549 cells assessed as cell growth at 10 uM incubated for 48 hrs by sulforhodamine B assay relative to control; type: functional; conditions: BT-549, 48 h, read-out: Activity
T47D [4] = assay: Growth inhibition of human T47D cells assessed as cell growth at 10 uM incubated for 48 hrs by sulforhodamine B assay relative to control; type: functional; conditions: read-out: Activity
HOP-62 = assay: Growth inhibition of human HOP62 cells incubated for 48 hrs by sulforhodamine B assay; type: functional; conditions: HOP-62, 48 h
HCT-15 = assay: Growth inhibition of human HCT15 cells incubated for 48 hrs by sulforhodamine B assay; type: functional; conditions: HCT-15, 48 h
SF-268 = assay: Growth inhibition of human SF268 cells incubated for 48 hrs by sulforhodamine B assay; type: functional; conditions: SF-268, 48 h
CAKI-1 [5] = assay: Growth inhibition of human Caki1 cells incubated for 48 hrs by sulforhodamine B assay; type: functional; conditions: CAKI-1, 48 h
MCF7 [6] = assay: Growth inhibition of human MCF7 cells incubated for 48 hrs by sulforhodamine B assay; type: functional; conditions: MCF7, 48 h
MDA-MB-231 [7] = assay: Growth inhibition of human MDA-MB-231 cells incubated for 48 hrs by sulforhodamine B assay; type: functional; conditions: MDA-MB-231, 48 h
T47D [8] = assay: Growth inhibition of human T47D cells incubated for 48 hrs by sulforhodamine B assay; type: functional
[9] = molecular target: RAF proto-oncogene serine/threonine-protein kinase (Homo sapiens, UniProt P04049); assay: Inhibition of human c-RAF at 10 uM using MEK1 as substrate in presence of [33P]ATP by Hotspot assay relative to control
RAF proto-oncogene serine/threonine-protein kinase, sequence (P04049 whole entry): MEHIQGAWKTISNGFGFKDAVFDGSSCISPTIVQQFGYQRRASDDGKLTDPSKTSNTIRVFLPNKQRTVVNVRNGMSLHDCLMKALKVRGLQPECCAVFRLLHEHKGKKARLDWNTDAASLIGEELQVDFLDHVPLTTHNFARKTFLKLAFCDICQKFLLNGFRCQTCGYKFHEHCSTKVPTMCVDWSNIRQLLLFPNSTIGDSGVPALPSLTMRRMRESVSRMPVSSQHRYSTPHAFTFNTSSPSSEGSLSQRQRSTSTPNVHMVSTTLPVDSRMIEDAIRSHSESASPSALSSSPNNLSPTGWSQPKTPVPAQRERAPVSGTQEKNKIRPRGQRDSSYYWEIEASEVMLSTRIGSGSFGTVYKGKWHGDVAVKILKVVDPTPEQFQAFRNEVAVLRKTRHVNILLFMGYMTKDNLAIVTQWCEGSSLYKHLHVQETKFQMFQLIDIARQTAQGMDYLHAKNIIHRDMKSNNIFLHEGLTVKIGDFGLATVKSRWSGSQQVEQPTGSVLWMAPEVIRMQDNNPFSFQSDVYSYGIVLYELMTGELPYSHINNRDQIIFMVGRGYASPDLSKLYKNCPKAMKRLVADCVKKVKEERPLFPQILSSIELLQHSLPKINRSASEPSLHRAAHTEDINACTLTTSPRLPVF

[10] = read-out: LC50 (the source's name)

SMILES: COc1cc2cc(Oc3ccc(NC(=O)Nc4ccccc4)cc3)c(C)nc2cc1OC
- growth at 10 µM (RPMI-8226): 38.8%
- growth at 10 µM (A549): 58.4%
- growth at 10 µM (EKVX): 63.4%
- growth at 10 µM (NCI-H460): 69%
- growth at 10 µM (NCI-H522): 67.2%
- growth at 10 µM (COLO 205): 85.7%
- growth at 10 µM (HCC 2998): 105%
- growth at 10 µM (SW-620): 105%
- growth at 10 µM (SNB-19): 94.8%
- growth at 10 µM (LOX IMVI): 82.1%
- growth at 10 µM (SK-MEL-2): 78.8%
- growth at 10 µM (SK-MEL-5): 60.8%
- growth at 10 µM (IGROV-1): 103%
- growth at 10 µM (OVCAR-3): 67.1%
- growth at 10 µM (OVCAR-5): 99.7%
- growth at 10 µM (NCI/ADR-RES): 84.3%
- growth at 10 µM (SK-OV-3): 48.4%
- growth at 10 µM (A498): 54%
- growth at 10 µM (ACHN): 84.5%
- growth at 10 µM (CAKI-1 [1]): 88.7%
- growth at 10 µM (RXF 393): 76.7%
- growth at 10 µM (MCF7 [2]): 72.8%
- growth at 10 µM (MDA-MB-231 [3]): 80%
- growth at 10 µM (BT-549): 104%
- growth at 10 µM (T47D [4]): 97.1%

SMILES: COc1cc2cc(Sc3ccc(NC(=O)Nc4ccc(Cl)c(Cl)c4)cc3)c(C)nc2cc1OC
- growth at 10 µM (RPMI-8226): 54.5%
- growth at 10 µM (A549): 59.5%
- growth at 10 µM (EKVX): 69.4%
- growth at 10 µM (NCI-H460): 74.6%
- growth at 10 µM (NCI-H522): 66%
- growth at 10 µM (COLO 205): 87.8%
- growth at 10 µM (HCC 2998): 101%
- growth at 10 µM (SW-620): 89.9%
- growth at 10 µM (SNB-19): 84.9%
- growth at 10 µM (LOX IMVI): 94.7%
- growth at 10 µM (SK-MEL-2): 72.6%
- growth at 10 µM (SK-MEL-5): 71%
- growth at 10 µM (IGROV-1): 75.3%
- growth at 10 µM (OVCAR-3): 73%
- growth at 10 µM (OVCAR-5): 84.7%
- growth at 10 µM (NCI/ADR-RES): 86.2%
- growth at 10 µM (SK-OV-3): 55%
- growth at 10 µM (A498): 73%
- growth at 10 µM (ACHN): 72.6%
- growth at 10 µM (CAKI-1 [1]): 64.5%
- growth at 10 µM (RXF 393): 84.4%
- growth at 10 µM (MCF7 [2]): 75.3%
- growth at 10 µM (MDA-MB-231 [3]): 87.9%
- growth at 10 µM (BT-549): 77.8%

SMILES: COc1cc2cc(Oc3ccc(NC(=O)Nc4ccc(Cl)c(C(F)(F)F)c4)cc3)c(C)nc2cc1OC
- growth at 10 µM (RPMI-8226): -26.4%
- growth at 10 µM (A549): -17.2%
- growth at 10 µM (EKVX): 8.83%
- growth at 10 µM (NCI-H460): -19.8%
- growth at 10 µM (NCI-H522): -43.6%
- growth at 10 µM (COLO 205): -49.5%
- growth at 10 µM (HCC 2998): -13.1%
- growth at 10 µM (SW-620): 7.51%
- growth at 10 µM (SNB-19): 23.7%
- growth at 10 µM (LOX IMVI): -81.3%
- growth at 10 µM (SK-MEL-2): -49.8%
- growth at 10 µM (SK-MEL-5): -73.4%
- growth at 10 µM (IGROV-1): -7.69%
- growth at 10 µM (OVCAR-3): -27.3%
- growth at 10 µM (OVCAR-5): 18%
- growth at 10 µM (NCI/ADR-RES): 2.01%
- growth at 10 µM (SK-OV-3): -4.09%
- growth at 10 µM (A498): 10.4%
- growth at 10 µM (ACHN): 13.6%
- growth at 10 µM (CAKI-1 [1]): -8.92%
- growth at 10 µM (RXF 393): -33.4%
- growth at 10 µM (MCF7 [2]): 2.59%
- growth at 10 µM (MDA-MB-231 [3]): -50.6%
- growth at 10 µM (BT-549): -38.7%
- growth at 10 µM (T47D [4]): 21.4%
- GI50 (HOP-62): 1.3 µM
- TGI (HOP-62): 5.32 µM
- CC50 (HOP-62; [10]): 13.7 µM
- GI50 (HCT-15): 1.15 µM
- LC50 (lethal concentration, 50% net cell kill) (HCT-15): 16.9 µM
- TGI (HCT-15): 4.86 µM
- GI50 (SF-268): 1.55 µM
- LC50 (50% lethal concentration) (SF-268): 22.6 µM
- TGI (SF-268): 6.34 µM
- GI50 (CAKI-1 [5]): 0.782 µM
- TGI (CAKI-1 [5]): 2.54 µM
- CC50 (CAKI-1 [5]; [10]): 25.2 µM
- GI50 (MCF7 [6]): 1.08 µM
- TGI (MCF7 [6]): 3.88 µM
- CC50 (MCF7 [6]; [10]): 15 µM
- GI50 (MDA-MB-231 [7]): 0.681 µM
- TGI (MDA-MB-231 [7]): 1.84 µM
- CC50 (MDA-MB-231 [7]; [10]): 9.6 µM
- GI50 (T47D [8]): 1.21 µM
- TGI (T47D [8]): 7.9 µM
- CC50 (T47D [8]; [10]): > 32.5 µM
- inhibition [9]: 99.7%
